Measurements published in patent US8802700B2 (Vertex Pharmaceuticals Incorporated, priority 2010, dated 2014).

Biological target: T1, ΔF508-CFTR (Homo sapiens, UniProt P13569, DEL508-508)
T1 construct: expressed in transfected cells
Test: Membrane potential optical assay (FRET voltage-sensor dyes, VIPR), identification of potentiator compounds
Format: cell-based
Conditions: Table 3; assay not given; read-out: % Activity (% Efficacy, relative efficacy)
How it was run: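 Potentiator screen measured membrane potential via FRET between CC2-DMPE donor and DiSBAC2(3), read on VIPR II. Compound went in with the first addition of chloride-free gluconate bath; cells were ΔF508-CFTR-expressing NIH3T3 mouse fibroblasts, temperature-corrected at 27 °C for 24 h.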

T1 sequence (P13569 with tags, fused parts or gaps DEL508-508): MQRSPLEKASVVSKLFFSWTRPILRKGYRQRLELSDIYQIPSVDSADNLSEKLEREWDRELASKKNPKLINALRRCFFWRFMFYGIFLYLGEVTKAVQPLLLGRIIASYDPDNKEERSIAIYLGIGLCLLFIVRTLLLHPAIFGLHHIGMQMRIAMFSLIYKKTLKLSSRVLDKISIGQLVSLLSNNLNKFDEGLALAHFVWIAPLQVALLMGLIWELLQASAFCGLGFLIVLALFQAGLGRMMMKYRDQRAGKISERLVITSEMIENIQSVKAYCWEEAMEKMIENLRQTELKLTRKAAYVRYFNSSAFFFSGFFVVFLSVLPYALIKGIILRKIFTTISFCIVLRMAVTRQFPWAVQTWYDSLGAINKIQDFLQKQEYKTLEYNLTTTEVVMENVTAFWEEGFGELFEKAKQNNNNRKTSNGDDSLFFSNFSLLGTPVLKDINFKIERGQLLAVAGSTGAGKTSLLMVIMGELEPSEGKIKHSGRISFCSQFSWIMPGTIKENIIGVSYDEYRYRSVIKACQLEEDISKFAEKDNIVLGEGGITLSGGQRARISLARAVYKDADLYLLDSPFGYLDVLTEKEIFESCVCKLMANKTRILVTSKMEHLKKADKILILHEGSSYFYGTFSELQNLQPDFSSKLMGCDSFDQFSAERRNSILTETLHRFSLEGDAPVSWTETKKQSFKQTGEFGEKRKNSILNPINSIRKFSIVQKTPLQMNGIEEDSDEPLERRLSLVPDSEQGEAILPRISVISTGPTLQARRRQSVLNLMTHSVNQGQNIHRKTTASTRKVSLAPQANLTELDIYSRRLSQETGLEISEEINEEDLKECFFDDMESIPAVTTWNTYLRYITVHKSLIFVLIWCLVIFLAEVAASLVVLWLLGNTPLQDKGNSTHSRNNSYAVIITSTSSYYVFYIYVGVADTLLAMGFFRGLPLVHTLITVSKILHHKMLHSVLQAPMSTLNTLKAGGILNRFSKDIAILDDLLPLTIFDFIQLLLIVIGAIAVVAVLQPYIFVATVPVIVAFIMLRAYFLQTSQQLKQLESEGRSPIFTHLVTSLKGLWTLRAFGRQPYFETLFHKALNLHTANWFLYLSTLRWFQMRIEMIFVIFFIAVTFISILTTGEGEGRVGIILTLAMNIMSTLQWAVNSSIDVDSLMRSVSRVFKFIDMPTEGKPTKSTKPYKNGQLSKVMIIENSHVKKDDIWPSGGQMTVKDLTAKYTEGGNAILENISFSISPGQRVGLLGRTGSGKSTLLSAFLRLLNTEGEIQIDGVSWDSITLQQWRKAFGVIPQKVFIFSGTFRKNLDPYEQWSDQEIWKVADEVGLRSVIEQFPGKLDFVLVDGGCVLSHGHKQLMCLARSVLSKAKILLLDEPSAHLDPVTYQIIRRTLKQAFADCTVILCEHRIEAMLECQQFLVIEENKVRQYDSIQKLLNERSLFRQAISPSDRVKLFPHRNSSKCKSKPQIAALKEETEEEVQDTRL

| Compound | Emax [%] |
| --- | --- |
| COc1nc2ccccc2c(OC)c1C(=O)Nc1ccccc1-c1ccccc1 [Compound 210, 2,4-dimethoxy-N-(2-phenylphenyl)-quinoline-3-carboxamide] | 25 to 100 |
| O=C(Nc1ccc(N2CCC(CO)CC2)cc1C(F)(F)F)c1c[nH]c2ccccc2c1=O [Compound 668, N-[4-[4-(hydroxymethyl)-1-piperidyl]-2-(trifluoromethyl)phenyl]-4-oxo-1H-quinoline-3-carboxamide] | 25 to 100 |
| O=C(Nc1ccccc1-c1cc2ccccc2[nH]1)c1c[nH]c2ccccc2c1=O [Compound 38, N-[2-(1H-indol-2-yl)phenyl]-4-oxo-1H-quinoline-3-carboxamide] | 25 to 100 |
| Cc1cccc2c(=O)c(C(=O)Nc3cc4[nH]ccc4cc3C(C)(C)C)c[nH]c12 [Compound 644, 8-methyl-4-oxo-N-(5-tert-butyl-1H-indol-6-yl)-1H-quinoline-3-carboxamide] | < 25 |
| CCOc1cccc2c(=O)c(C(=O)Nc3ccc(C(C)C)cc3C(F)(F)F)c[nH]c12 [Compound 517, 8-ethoxy-N-[4-isopropyl-2-(trifluoromethyl)phenyl]-4-oxo-1H-quinoline-3-carboxamide] | < 25 |
| O=C(Nc1ccccc1Oc1ncc(C(F)(F)F)cc1Cl)c1c[nH]c2ccccc2c1=O [Compound 42, N-[2-[[3-chloro-5-(trifluoromethyl)-2-pyridyl]oxy]phenyl]-4-oxo-1H-quinoline-3-carboxamide] | 25 to 100 |
| CC(C)(C)c1ccc(O)cc1NC(=O)c1c[nH]c2cccc(O)c2c1=O [Compound 609, 5-hydroxy-N-(5-hydroxy-2-tert-butyl-phenyl)-4-oxo-1H-quinoline-3-carboxamide] | 25 to 100 |
| O=C(Nc1ccccc1-c1ccccc1)c1c[nH]c2ccccc2c1=O [Compound 461, 4-oxo-N-(2-phenylphenyl)-1H-quinoline-3-carboxamide] | 25 to 100 |
| COc1c(C(=O)Nc2ccc(C(C)(C)C)c(O)c2)cnc2ccccc12 [Compound 415, N-(3-Hydroxy-4-tert-butyl-phenyl)-4-methoxy-quinoline-3-carboxamide] | 25 to 100 |
| CC(C)(C)c1cc(C(C)(C)C)c(NC(=O)c2c[nH]c3cc(OC(F)(F)F)ccc3c2=O)cc1O [Compound 694, N-(5-hydroxy-2,4-ditert-butyl-phenyl)-4-oxo-7-(trifluoromethoxy)-1H-quinoline-3-carboxamide] | 25 to 100 |
| O=C(Nc1ccccc1Oc1ccc(Cl)cc1Cl)c1c[nH]c2ccccc2c1=O [Compound 245, N-[2-(2,4-dichlorophenoxy)phenyl]-4-oxo-1H-quinoline-3-carboxamide] | 25 to 100 |
| O=C(Nc1ccc(OC(F)(F)F)c(N2CCCCC2)c1)c1c[nH]c2ccccc2c1=O [Compound 696, 4-oxo-N-[3-(1-piperidyl)-4-(trifluoromethoxy)phenyl]-1H-quinoline-3-carboxamide] | 25 to 100 |

Now from value to molecule:

| Emax [%] | Compound |
| --- | --- |
| 25 to 100 | Cc1cccc(Oc2ncccc2NC(=O)c2c[nH]c3ccccc3c2=O)c1C [Compound 206, N-[2-(2,3-dimethylphenoxy)-3-pyridyl]-4-oxo-1H-quinoline-3-carboxamide] |
| 25 to 100 | CC(C)(C)c1ccc(NC(=O)c2c[nH]c3ccccc3c2=O)cc1N [Compound 271, N-(3-amino-4-tert-butyl-phenyl)-4-oxo-1H-quinoline-3-carboxamide] |
| < 25 | Cc1cccnc1NC(=O)c1c[nH]c2ccccc2c1=O [Compound 192, N-(3-methyl-2-pyridyl)-4-oxo-1H-quinoline-3-carboxamide] |
| 25 to 100 | Cc1ccccc1NC(=O)c1c[nH]c2ccccc2c1=O [Compound 459, N-(o-tolyl)-4-oxo-1H-quinoline-3-carboxamide] |
| 25 to 100 | Cc1cccc(C(C)C)c1NC(=O)c1c[nH]c2ccccc2c1=O [Compound 430, N-(2-isopropyl-6-methyl-phenyl)-4-oxo-1H-quinoline-3-carboxamide] |
| < 25 | O=C(Nc1cccc2nsnc12)c1c[nH]c2ccccc2c1=O [Compound 54, 4-oxo-N-(8-thia-7,9-diazabicyclo[4.3.0]nona-2,4,6,9-tetraen-5-yl)-1H-quinoline-3-carboxamide] |
